From PubChem BioAssay (NCI) come the findings set out here.

Several values for one entry are separate records, joined by “and”; a condition that tells them apart may be missing. Equal values may be shown once.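 Following 48 hours of exposure in 96-well plates, responses at five concentrations were used to interpolate endpoints linearly. GI50 = concentration required for 50% inhibition of growth. TGI: concentration producing complete growth inhibition.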 Where a SMILES comes first, the peptide text is derived from it. [ ]: non-standard residue; d: D form. Phe(F5) = N[CH](Cc1c(F)c(F)c(F)c(F)c1F)C(=O)O

Experiment in all cases: inhibition of tumour cell growth, NCI panel, 48 h
Experiment [1] relates to MDA-N.
Experiment [2] deals with DMS 273 small cell lung.
The test system of experiment [3] is XF 498 CNS.
The subject of experiment [4] is DMS 114 small cell lung.
Experiment [5] deals with LXFL 529 NSCLC.
For experiment [6], the system named is KM20L2 colon.
Experiment [7] deals with HOP-18 NSCLC.
For experiment [8], the system named is RXF-631 renal.
Experiment [9] has as its system SNB-78 CNS.

With `O=C(O)[C@@H]1C2CC([C@@H]1C(=O)O)[C@H](N1C(=O)CCC1=O)[C@@H]2Br` (some centres undefined), the TGI in experiment [1] is above 100 µM.

In the case of `CCc1ccc(NCc2cc(OC)c(OC)c(OC)c2)cc1`, the GI50 was 0.19 µM and 0.628 µM in experiment [2]; below 0.01 µM in experiment [1]; 0.523 µM and 1.57 µM in experiment [5]; 3.4 µM and 27.6 µM in experiment [7]. In addition, the TGI in experiment [2] was 13 µM; in [1], 1.17 µM and 0.772 µM; in experiment [3], 21.7 µM and 53.9 µM; in experiment [4] it was 4.9 µM and 10.2 µM; in experiment [5] it was 14 µM and 65.4 µM; in experiment [6] it was 1.32 µM and 1.64 µM. The same compound yielded a TGI in [7] above 100 µM.

As to `CN(C)c1ccc2c(NCCCCCCNc3ccnc4cc(N(C)C)ccc34)ccnc2c1`, the TGI is 21.3 µM in experiment [2]; 11.9 µM in [3]; above 100 µM in experiment [8]; 66.6 µM in experiment [4]; above 100 µM in experiment [9].

In experiment [1], `CC12CCC(=O)C=C1CCC1C2CCC2(C)C(C(=O)Cn3cnc4c(=S)nc[nH]c43)CCC12` (centres undefined) had a TGI above 100 µM.

`CC(C)(C(=O)NN)c1ccccc1`: the TGI in experiment [1] is above 100 µM.

In the case of `CC(=O)OC1c2ccccc2CC2(OC(C)=O)c3ccccc3C12` (centres undefined), the TGI in experiment [1] was above 100 µM.

Take `COC(=O)C(CC(C)C)NC(=O)C(Cc1cnc[nH]1)NC(=O)CNC(=O)C(NC(=O)C(C)NC(=O)C(Cc1c[nH]c2ccccc12)NC(=O)C(CCC(=O)O)NC(=O)C(N)Cc1c(F)c(F)c(F)c(F)c1F)C(C)C` (centres undefined) (H-[Phe(F5)]EWAVGHL-OMe; configuration not given here): the TGI in experiment [2] was above 100 µM; in [1] it was above 12.5 µM; in experiment [3], above 100 µM; in experiment [4], above 100 µM; in experiment [5], above 100 µM; in experiment [9], above 100 µM. For the same compound, the TGI in experiment [6] and in [7] was above 100 µM throughout.

Turning to `CC1=C2CCCC2C/C(=N/Nc2ccc([N+](=O)[O-])cc2[N+](=O)[O-])CC1` (centres undefined), the TGI in experiment [2], in [3], in [8], in experiment [4], in experiment [5] and in experiment [6] was above 100 µM in each case. In experiment [7], this compound showed a TGI above 100 µM.

Regarding `CCOP(=O)(OCC)C1CCCCOC1=O` (centres undefined), the TGI in [2], in [3], in experiment [8], in [4], in [5] and in [9] was above 100 µM throughout. Moreover, the TGI in [6] and in experiment [7] was above 100 µM in each case.

For `O=C(O)CS(=O)(=O)C(c1ccccc1)c1ccccc1`, the TGI in experiment [1] was above 100 µM.

Turning to `Nc1cc(=O)[nH]c(SC2=NC(N)CC(O)C2)n1` (centres undefined), the TGI in experiment [2], in experiment [3], in experiment [4], in experiment [5], in experiment [9] and in [6] was above 100 µM each time. For the same compound, in experiment [7], the TGI was above 100 µM.

On to `Cc1ccc2c(c1)C1(C)OC(CC(N)C1O)O2` (centres undefined), for which the TGI in [2], in experiment [4] and in experiment [7] was above 100 µM each time.

Turning to `CCCC(O)[C@@H](O)c1ccc2c(c1O)C(=O)c1c(OC)cccc1C2=O` (some centres undefined), the TGI in experiment [2] is above 100 µM; in experiment [3], 36.3 µM; in experiment [8] it was 75.4 µM; in [4], 61.9 µM; in experiment [9], 91.1 µM; in experiment [6], above 100 µM. The compound further came in with a TGI in experiment [7] above 100 µM.

With `CC1(Sc2ccccc2)CN(Cc2ccccc2)C1=O` (centres undefined), the TGI in [2], in experiment [3], in experiment [8], in experiment [4], in [9] and in experiment [6] was above 100 µM in each case. In addition, the TGI in experiment [7] is above 100 µM.

As for `CC1Oc2cc3c(-c4c(O)cc(O)c5c(O)c6c(cc45)OC(C)C(C)C6=O)c(O)cc(O)c3c(O)c2C(=O)C1C` (centres undefined), in [1], the TGI is 1.58 µM.

In the case of `COC(=O)CCC(=O)N1Cc2cc(C)ccc2N(C(=O)CCC(=O)OC)Cc2cc(C)ccc21`, the TGI in experiment [2], in experiment [3], in experiment [9] and in experiment [7] was above 100 µM in each case.

In the case of `O=C(NCCCCCCNC(=O)c1cccc2ccccc12)c1cccc2ccccc12`, the TGI was 3.46 µM in [2]; 9.97 µM in experiment [3]; above 100 µM in [8]; above 100 µM in [4]; above 100 µM in experiment [5]; 48.9 µM in [9]. Besides, the TGI was above 100 µM in [6] and 76.8 µM in [7].

For `CCOC(=O)C=C1CCN(C(=O)c2ccccc2)CC1`, the TGI in [2], in experiment [3], in experiment [8], in [5], in experiment [9] and in experiment [6] was above 100 µM in each case. In addition, the TGI in experiment [7] was above 100 µM.

Take `NC(=O)OCC(COc1ccc(Cl)cc1)OC(=O)c1ccccc1Cl` (centres undefined): the TGI in [2] is 36.4 µM; in experiment [8], 46 µM; in [4], 28.1 µM; in [5], 64.6 µM; in experiment [9], above 100 µM; in experiment [6], 34.9 µM. The same compound showed a TGI in [7] of 62.8 µM.

Turning to `COC(=O)[C@@H]1CSC(=S)N1C(=O)C[C@H]1CC=CC[C@H]1CC(=O)Sc1ccccc1`, the TGI in experiment [2] turned out to be 44.1 µM; in experiment [3], 34.5 µM; in [5] it was 30.5 µM; in experiment [9], 49.2 µM; in [6], 39 µM; in [7] it was 61.1 µM.

As for `CN1CCc2c1nc(-c1ccccc1)c1c2N(C)CC1`, the TGI in experiment [2] was above 100 µM; in experiment [5] it was above 100 µM; in experiment [9], above 100 µM; in [6], above 100 µM; in experiment [7], 78.6 µM.

`CC1=CC(=O)c2c(O)cccc2C1=O`: the TGI in [1] came out at 3.23 µM.

As to `NCC1(N2CCOCC2)C2CCCC21CO` (centres undefined), the TGI in experiment [2], in [4], in experiment [5], in experiment [9] and in experiment [7] was above 100 µM each time.

For the compound `Cn1c(=O)c2[nH]c(/N=N/N3CCN(CCO)CC3)nc2n(C)c1=O`, the TGI in experiment [1] was above 100 µM.

In the case of `CS(=O)(=O)CC1=Nc2nnc(CCCCCCCc3nnc4n3C(=O)C(CS(C)(=O)=O)=N4)n2C1=O`, the TGI in experiment [3], in [4], in experiment [5], in experiment [6] and in experiment [7] was above 100 µM each time.

As to `CC(=O)[O][Pb]([O]C(C)=O)([c]1ccccc1)[c]1ccccc1`, the GI50 is 2.88 µM in experiment [2]; 1.44 µM in [4]; 5.57 µM in [5]; 1.45 µM in experiment [9]; 9.34 µM in experiment [6]; 6.5 µM in [7]. Besides, the TGI is above 100 µM in experiment [2]; 4.16 µM in [4]; above 100 µM in experiment [5]; 7.63 µM in experiment [9]; above 100 µM in [6]; above 100 µM in experiment [7].

For the compound `COC12C=CC(CC1)c1c(O)ccc(O)c12` (centres undefined), the TGI is above 87 µM in experiment [2]; 44 µM in [3]; above 100 µM in experiment [4]; above 71.3 µM in experiment [5]; above 100 µM in experiment [9]; above 100 µM in experiment [6]. Moreover, in experiment [7], the TGI is above 100 µM.

As for `COC(=O)c1[nH]c(=S)[nH]c(=O)c1-c1ccc(Cl)cc1`, the TGI in experiment [2], in experiment [3], in experiment [8], in experiment [4], in [5] and in experiment [9] was above 50 µM throughout. Also, in experiment [6], the TGI is above 50 µM.

`Nc1ncnc2c1ccn2C1OC2COP(=O)(O)OC2C1O` (centres undefined): the TGI in [1] came out at 11.1 µM.

On to `O=C(CCn1[nH]c(=O)c(Cl)c(Cl)c1=O)NOCCCc1ccccc1`, for which the TGI in experiment [2], in experiment [3], in experiment [8], in experiment [5], in [9] and in experiment [6] was above 100 µM throughout. In addition, the TGI in experiment [7] was above 100 µM.

Regarding `C=C(C)[C@@H]1CC=C(CO)CC1`, the TGI in experiment [1] is above 10 µM; in experiment [3], 680 µM; in experiment [8] it was 1210 µM; in experiment [4], 709 µM; in experiment [5], 1320 µM; in experiment [9], 988 µM. Further, the TGI in experiment [6] stood at 945 µM.

As for `COc1ccccc1[N-]C(C1=C([O-])c2ccccc2C1=O)c1ccccc1.COc1ccccc1[N-]C(C1=C([O-])c2ccccc2C1=O)c1ccccc1.[Cu+2]` (centres undefined), the GI50 was 4.59 µM in experiment [2]; 12.7 µM in [8]; 3.01 µM in experiment [4]; 22.4 µM in experiment [5]; 8.19 µM in [9]; 25.4 µM in experiment [6]. In experiment [7], the GI50 was 18.3 µM. The TGI in experiment [2], in experiment [8], in experiment [4], in experiment [5], in experiment [9] and in [6] was above 100 µM each time. The TGI in experiment [7] was 95.1 µM.

Consider `O=C(CC1Sc2ccccc2NC1=O)Nc1cc(Cl)ccc1Cl` (centres undefined), for which the TGI in experiment [2], in experiment [8], in experiment [4], in experiment [5], in experiment [9] and in experiment [6] was above 100 µM throughout.

With `CC(=O)/C(=C\c1ccco1)C(=O)Nc1ccccc1`, the TGI in experiment [3], in [4], in experiment [5], in experiment [9] and in experiment [7] was above 100 µM throughout.
